The source of these data is paper PMC11215771 (Journal of Medicinal Chemistry, 2024).

For test [1], the target named is T1, hCathepsinD in HEK293T cells (Homo sapiens, UniProt P07339).
T1 construct: EGFP or mCherry (C); host or cells: HEK293T
Kind of test: Staining of transfected HEK293T cells, confocal imaging: Cathepsin D. Format: cell-based. On the procedure: Next, we explored the performance of the new Alexa-C3 compounds in living cells. Because of the rather hydrophilic properties, we exclusively targeted the cell membrane. To prevent intracellular accumulation, we first performed stainings at 4 °C arresting ATP-dependent endocytosis. […] All of the constructs were tagged at the C-terminus with either EGFP or mCherry to visualize subcellular expression. […] With these experiments, we want to exclude that a lack of staining is caused by an impaired accessibility of the protein by Alexa-C3 compounds. […] We then tested samples with BACE1 expression after fixation of the cells with paraformaldehyde (PFA).
(D) All conjugates were also probed on cells fixed with 4% paraformaldehyde (PFA) for 15 min prior to staining. […] Scale bars represent 5 μm (A–D) and 20 μm (E). […] Samples were excited at 488, 561, and 633 nm, respectively.
HEK293T cells (ATCC accession number CRL-11268) were maintained in Dulbecco's modified Eagle's medium (Sigma-Aldrich D6046) with 1g/L glucose, supplemented with 10% FCS (Merck) and 1% penicillin/streptomycin (PAA). CHO-K1 cells (ATCC #CCL-61) were maintained in modified phenol red free RPMI-1640 medium (Sigma-Aldrich, R7509), supplemented with 2 mM L-glutamine (Sigma-Aldrich, G7513), and 10% FCS (Merck). Cells were cultured at 37 °C in a 5% CO2 atmosphere. […]

Test [2] concerns the target T2, wild-type hBACE1 in CHO-K1 cells (Homo sapiens, UniProt P56817).
T2 construct: expressed in transfected cells; host or cells: CHO-K1
As to the kind of experiment: Single molecule TIRF microscopy and bleaching step analysis in CHO-K1 cells. Format: cell-based. As to conditions: 200 nM probe, fixed CHO-K1, TIRF, after rolling background subtraction. The procedure: Due to the high photostability and quantum yield of the Alexa dyes, the C3-compounds are potential tools for single molecule fluorescence microscopy of BACE1. […] CHO-K1 cells were transfected with wild-type BACE1. […] The samples were then recorded using total internal reflection fluorescence (TIRF) microscopy. […] Prior to analysis, ImageJ rolling background subtraction was applied[45] (Figure 6A, right panel). […] Single particles were identified and time traces of fluorescence intensity were extracted using GMimPro[46] (Figure 6B). The time traces were then subjected to a bleaching-step analysis with quickPBSA[47] (Figure 6B). […] The msfGFP was reported previously to display a fluorescence probability of about 50%, defined as combined probability of fluorescence, detection in the specific imaging system and identification in the analysis of a BACE1 molecule.[48] […] Here, the best fits indicated also a fluorescence probability of about 60%, but with a considerably lower fit error compared to dimers only (Figure 6D, blue traces).
The panel in the middle depicts typical single molecule complexes 48 h after transfection with 50 ng wild type BACE1. […] The insets highlight single fluorescence spots at higher magnification. […] (B) Single fluorescence spots were located and fluorescence intensities over time were extracted (see methods). […]

SMILES strings stand for the structures.

T2 sequence (P56817 46-501): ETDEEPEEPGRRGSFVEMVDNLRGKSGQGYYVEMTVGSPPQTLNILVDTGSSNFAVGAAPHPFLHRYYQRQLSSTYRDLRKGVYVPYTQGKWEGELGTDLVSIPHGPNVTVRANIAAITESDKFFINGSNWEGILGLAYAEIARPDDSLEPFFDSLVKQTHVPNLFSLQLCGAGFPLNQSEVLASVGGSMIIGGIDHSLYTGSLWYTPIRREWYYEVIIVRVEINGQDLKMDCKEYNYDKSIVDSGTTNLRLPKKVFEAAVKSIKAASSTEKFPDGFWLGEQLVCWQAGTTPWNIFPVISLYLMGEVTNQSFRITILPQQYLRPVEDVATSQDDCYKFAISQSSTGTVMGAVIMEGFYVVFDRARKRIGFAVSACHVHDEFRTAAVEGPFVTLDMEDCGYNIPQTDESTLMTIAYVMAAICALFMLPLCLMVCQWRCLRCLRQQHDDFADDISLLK
T1 sequence (P07339 65-412): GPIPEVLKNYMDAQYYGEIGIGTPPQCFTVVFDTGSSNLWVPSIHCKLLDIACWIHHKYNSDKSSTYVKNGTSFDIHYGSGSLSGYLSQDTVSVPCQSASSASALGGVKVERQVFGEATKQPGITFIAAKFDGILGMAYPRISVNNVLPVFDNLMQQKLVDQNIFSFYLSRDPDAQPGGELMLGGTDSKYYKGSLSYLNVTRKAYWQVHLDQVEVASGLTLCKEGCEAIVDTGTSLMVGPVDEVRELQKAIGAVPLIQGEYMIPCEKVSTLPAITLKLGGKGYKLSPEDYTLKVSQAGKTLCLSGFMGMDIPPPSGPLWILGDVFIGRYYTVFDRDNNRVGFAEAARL

On to `C[C@@H](NC(=O)c1cc(C(=O)N[C@@H](Cc2ccccc2)[C@H](O)CNC2CC2)cc(N(C)S(=O)(=O)CCCNC(=O)CCCCCC2(C)C(/C=C/C=C/C=C3/N(CCCS(=O)(=O)O)c4ccc(S(=O)(=O)O)cc4C3(C)C)=[N+](CCCS(=O)(=O)[O-])c3ccc(S(=O)(=O)O)cc32)c1)c1ccccc1` (some centres unmarked), for which the “staining of Cathepsin D” value in test [1] is reported as “not labeled”.

With `C[C@@H](NC(=O)c1cc(C(=O)N[C@@H](Cc2ccccc2)[C@H](O)CNC2CC2)cc(N(C)S(=O)(=O)CCCNC(=O)c2ccc(C(=O)O)c(-c3c4ccc(=N)c(S(=O)(=O)O)c-4oc4c(S(=O)(=O)O)c(N)ccc34)c2)c1)c1ccccc1` [2-(6-Amino-3-iminio-4,5-disulfo-3H-xanthen-9-yl)-4-((3-(N-(3-(((2S,3R)-4-(cyclopropylamino)-3-hydroxy-1-phenylbutan-2-yl)carbamoyl)-5-(((R)-1-phenylethyl)carbamoyl)phenyl)-N-methylsulfamoyl)propyl)carbamoyl)benzoate], in test [2], the signal-to-background ratio stood at 4.8.
